# In BigSolDB 2.1:
compound,measurement,setting,value
CC(=O)OCC(=O)[C@@]12N=C(C)O[C@@H]1C[C@H]1[C@@H]3CCC4=CC(=O)C=C[C@]4(C)[C@H]3[C@@H](O)C[C@@]12C,solubility (mole fraction),"in acetone, 293.15 K",0.00618
same,solubility (mole fraction),"in acetone, 298.15 K",0.00674
same,solubility (mole fraction),"in acetone, 303.15 K",0.00735
same,solubility (mole fraction),"in acetone, 308.15 K",0.00797
same,solubility (mole fraction),"in acetone, 313.15 K",0.00861
same,solubility (mole fraction),"in acetone, 318.15 K",0.00946
same,solubility (mole fraction),"in acetone, 323.15 K",0.0104
same,solubility (mole fraction),"in ethanol, 293.15 K",0.00167
same,solubility (mole fraction),"in ethanol, 298.15 K",0.002
same,solubility (mole fraction),"in ethanol, 303.15 K",0.00236
same,solubility (mole fraction),"in ethanol, 308.15 K",0.00279
same,solubility (mole fraction),"in ethanol, 313.15 K",0.00334
same,solubility (mole fraction),"in ethanol, 318.15 K",0.00397
same,solubility (mole fraction),"in ethanol, 323.15 K",0.00477
same,solubility (mole fraction),"in ethanol, 328.15 K",0.00566
same,solubility (mole fraction),"in ethanol, 333.15 K",0.00663
same,solubility (mole fraction),"in ethanol, 338.15 K",0.00795
same,solubility (mole fraction),"in ethanol, 343.15 K",0.00957
same,solubility (mole fraction),"in ethyl acetate, 293.15 K",0.00331
same,solubility (mole fraction),"in ethyl acetate, 298.15 K",0.00361
same,solubility (mole fraction),"in ethyl acetate, 303.15 K",0.00393
same,solubility (mole fraction),"in ethyl acetate, 308.15 K",0.00426
same,solubility (mole fraction),"in ethyl acetate, 313.15 K",0.00465
same,solubility (mole fraction),"in ethyl acetate, 318.15 K",0.0051
same,solubility (mole fraction),"in ethyl acetate, 323.15 K",0.00559
same,solubility (mole fraction),"in ethyl acetate, 328.15 K",0.0061
same,solubility (mole fraction),"in ethyl acetate, 333.15 K",0.00668
same,solubility (mole fraction),"in ethyl acetate, 338.15 K",0.00737
same,solubility (mole fraction),"in ethyl acetate, 343.15 K",0.00805
same,solubility (mole fraction),"in isopropanol, 293.15 K",0.00127
same,solubility (mole fraction),"in isopropanol, 298.15 K",0.00161
same,solubility (mole fraction),"in isopropanol, 303.15 K",0.00202
same,solubility (mole fraction),"in isopropanol, 308.15 K",0.00249
same,solubility (mole fraction),"in isopropanol, 313.15 K",0.00305
same,solubility (mole fraction),"in isopropanol, 318.15 K",0.0038
same,solubility (mole fraction),"in isopropanol, 323.15 K",0.00456
same,solubility (mole fraction),"in isopropanol, 328.15 K",0.00566
same,solubility (mole fraction),"in isopropanol, 333.15 K",0.00683
same,solubility (mole fraction),"in isopropanol, 338.15 K",0.00813
same,solubility (mole fraction),"in isopropanol, 343.15 K",0.00973
same,solubility (mole fraction),"in isopropanol, 348.15 K",0.0121
